Source: patent US20250064803A1, “DOSAGE REGIMENS FOR PARP7 INHIBITORS” (Ribon Therapeutics, Inc., priority 2021, published 2025)
Values joined by “and” are separate entries in the source; they are usually repeats but may differ in a detail not shown here. Equal values may be shown once. “Also recorded” adds a separate entry of the source.

What was measured:
[1] = cited from earlier work
[2] = Plasma pharmacokinetics after oral tablets and capsules in male Beagle dogs; assay type: in vivo; conditions: for AUC / Cmax: male, Beagle, dog, plasma, po, 100 mg
Text: The objective of this study was to determine the plasma pharmacokinetic profiles of the compound of Formula I in male Beagle dogs after oral administration and to assess the exposure of tablets and capsules formulations.
Male Beagle dogs were purchased from Jiangsu Johnsen Bioresource CO., Ltd. The animals were 1-2.5 years old on the dosing day. All animals were housed in a 12-hour light/12-hour dark cycle environment. Animals for oral (PO) groups were fasted overnight prior to dosing and were fed approximately 2 hours after dosing. This study was approved by the Pharmaron Institutional Animal Care and Use Committee.
The compound of Formula I was used for the dose formulation and standard stock solution preparation. […] For the animals in PO groups, pentagastrin ([…], i.m.) was administrated 20 minutes before dosing PO formulation and 1.5 hours after the first pentagastrin dosing. The dosing volume was 0.024 mL/kg, the concentration was […] in DMSO/1 N NaOH/PBS. The dosing volume, detailed dosing time of pentagastrin was recorded. 10 mL of 0.001 N HCl was used to wash the gavage catheter for each animal.
Blood samples (0.5 mL) were collected from each animal via jugular veins. These blood samples were placed into tubes containing dipotassium ethylenediaminetetraacetic acid and then centrifuged at 2000 g for 10 minutes at 4° C. to produce plasma. All samples were stored at −75±15° C. until analysis.
Compound of Formula I was prepared in dimethyl sulfoxide with vortex at 1 mg/mL (free form) as standard stock solution. Calibration standard working solutions were prepared at concentrations of 5, 10, 20, 50, 100, 500, 1000, 5000, 10000 and 20000 ng/mL by serial dilution of the standard stock solution by 50% acetonitrile in water. […] These QC samples were prepared on the day of analysis in the same way as calibration standards.
5 μL of each calibration standard working solution (5, 10, 20, 50, 100, 500, 1000, 5000, 10000 and 20000 ng/mL) was added to 50 μL of blank Beagle Dog plasma to achieve calibration standards of 0.5-2000 ng/mL (0.5, 1, 2, 5, 10, 50, 100, 500, 1000, 2000 ng/mL) in a total volume of 55 μL. […] These QC samples were prepared on the day of analysis in the same way as calibration standards. 55 μL of standards, 55 μL of QC samples or 55 μL of unknown samples (50 μL of plasma sample with 5 μL 50% acetonitrile in water) were mixed with 200 μL of acetonitrile containing IS (internal standard, dexamethasone) to precipitate proteins. Then the samples were vortexed for 30 sec.
Data Acquisition was Performed by Sciex Analyst 1.6.3 Software (AB Sciex, Forster City, CA). Pharmacokinetic parameters were calculated by non-compartmental analysis (Phoenix TM WinNonlin® 6.1). The linear trapezoidal algorithm was used for AUC calculation.

[3] = Relative bioavailability PK of micronized vs nonmicronized 100 mg tablets in Phase 1 patients; assay type: in vivo, human
Protocol: Assessments conducted after C1D1 will be the same as described for patients in the dose escalation cohorts following Schedule 2. Based on emerging PK data, additional Relative Bioavailability Cohorts at additional dose levels may be explored.
Patients enrolled in the Relative Bioavailability Cohort(s) will have an additional visit 7 days (±3 days) prior to C1D1. […] On C1D-7 patients will be attached to a Holter monitor that will run continuously for ˜24 hours (i.e., until patients return on the following day for the 24-hr PK sample collection on C1D-6). […] On C1D1, patients will be attached to a Holter monitor that will run continuously for ˜24 hours (i.e., immediately before the study drug dose on C1D2). […] Samples collected after C1D2 are not considered part of the relative Bioavailability data set.
Plasma samples were collected at 0.5, 1, 2, 4, 6, 8, 12 and 24 hours post dose. […] Plasma samples were collected at 0.5, 1, 2, 4, 6, 8, 12 and 24 hours post dose.

[4] = First-in-human Phase 1 dose escalation study: treatment-related adverse events, safety; assay type: in vivo
Text: This protocol is a first-in-human, Phase 1, multi-center, open-label, study designed to evaluate the safety profile, including any dose-limiting toxicities (DLTs), and (maximum tolerated dose) MTD of the compound of Formula I administered as a single agent PO and establish the recommended phase 2 dose (RP2D) of the compound of Formula I. The study has a Dose Escalation Phase, which includes a relative bioavailability assessment, followed by a Dose Expansion Phase in patients with selected tumor types.
In the Dose Escalation Phase of the study, patients with any histologically- or cytologically-confirmed solid tumor type (which may include “solid” lymphoma [e.g., mantle cell]) that is refractory to standard therapy and for whom no therapy exists that would be curative or might provide clinical benefit and therefore for whom experimental therapy is a reasonable option are eligible. In the Dose Expansion Phase of the study, the RP2D will be investigated in the following cancer types: squamous cell carcinoma of the lung (SCCL), head and neck squamous cell carcinoma (HNSCC), hormone receptor positive (HR+) breast cancer, and PARP7 amplified cancer.
Two schedules are employed in the Dose Escalation Phase: • Schedule 1 will examine a 21-day cycle with 14 days of the compound of Formula I administered at doses of 25 mg, 50 mg, 100 mg, 200 mg, 300 mg, and 500 mg BID followed by a rest period. • Schedule 2 will examine a 21-day continuous dosing cycle at doses of 100 mg, 200 mg, 300 mg, and 400 mg BID.
The most frequent compound of Formula I treatment-related AEs in the ongoing Phase 1 escalation study are dysgeusia or taste disorder (36%), decreased appetite (15%), fatigue (14%), nausea (12%), and anemia, constipation, diarrhea and decreased weight (10%) each.
Overall, the safety profile of the compound of Formula I is considered manageable at the RP2D for combination with pembrolizumab.

[5] = Particle size by laser diffraction (USP 42 <429>, Malvern Mastersizer 3000); assay type: physicochemical
Text: The compound of Formula I can be prepared in micronized and nonmicronized forms. In some embodiments, the compound of Formula I used in the dosage forms of the invention is micronized. The micronized drug substance can be prepared, for example, by jet milling. Particle size can be measured by laser diffraction methods (e.g., USP 42 <429> Light Diffraction Measurement of Particle Size). Nonmicronized compound can have a particle diameter size [d90] of about 30 μm or larger. In some embodiments, nonmicronized compound has a particle diameter size [d90] of about 30 to about 500 μm, about 50 to about 400 μm, about 100 to about 350 μm, or about 150 to about 300 μm.
Micronized batches of the compound of Formula I were prepared by jet milling using a nitrogen gas feed. The nonmicronized starting material was prepared in a manner similar to the process for preparing crystalline compound of Formula I described in U.S. Pat. No. 10,550,105. Particle size was measured by laser diffraction according to USP 42 <429> using a Malvern Mastersizer 3000 equipped with a Hydro MV wet dispersion sample unit. Particle size diameters [d90] for two different lots were measured as 10.851 and 8.715 μm, respectively.

[6] = NSCLC patients, second or third line, Keynote-010 (n=682)
[7] = 100 mg capsule, micronized vs nonmicronized
[8] = particle size d90:d50 18:5 μm (micronized)
[9] = particle size d90:d50 228:108 μm (nonmicronized)
[10] = patients, ongoing Phase 1 escalation study

pembrolizumab: humanized antibody that binds to human PD-1, approved by the U.S. FDA
adverse reactions leading to discontinuation [1, 6]: 8%
pneumonitis leading to discontinuation (most common) [1, 6]: 1.8%
most frequent treatment-related AEs (fatigue, musculoskeletal pain, decreased appetite, pruritus, diarrhea, nausea, rash, pyrexia, cough, dyspnea, constipation, pain, abdominal pain), reported in ([1]; single agent (Merck 2021)): > 20%

C[C@@H](COCCC(=O)N1CCN(c2ncc(C(F)(F)F)cn2)CC1)Nc1cn[nH]c(=O)c1C(F)(F)F [compound of Formula I, 5-[[(2S)-1-(3-oxo-3-[4-[5-(trifluoromethyl)pyrimidin-2-yl]piperazin-1-yl]propoxy)propan-2-yl]amino]-4-(trifluoromethyl)-2,3-dihydropyridazin-3-one]
increase in AUC by micronization [2, 7]: 2.8 fold
increase in Cmax by micronization [2, 7]: 4.7 fold
exposure, micronized capsules (Group E) versus nonmicronized capsules (Group D) ([2]; 100 mg/dog PO): much higher
oral exposure versus dose level ([2]; Groups A, B and C, tablets 25, 50, 100 mg/dog): increased with the dose level, though not linear
AUC [2, 8]: 9560 ng·h/mL
Cmax [2, 8]: 1670 ng/mL
AUC [2, 9]: 3400 ng·h/mL
Cmax [2, 9]: 356 ng/mL
increase in mean AUC, micronized vs nonmicronized tablet [3]: about 1.5 fold
increase in mean Cmax, micronized vs nonmicronized tablet [3]: about 2.4 fold
safety profile / tolerability ([4]; 50 patients, first-in-human Phase 1 trial): favorable safety profile; also recorded: well tolerated
treatment-related AE: anemia [4, 10]: 10%
treatment-related AE: constipation [4, 10]: 10%
treatment-related AE: decreased appetite [4, 10]: 15%
treatment-related AE: decreased weight [4, 10]: 10%
treatment-related AE: diarrhea [4, 10]: 10%
treatment-related AE: dysgeusia or taste disorder [4, 10]: 36%
treatment-related AE: fatigue [4, 10]: 14%
treatment-related AE: nausea [4, 10]: 12%
particle diameter size d[90] ([5]; micronized compound (jet milled)): 10.851 μm and 8.715 μm
particle diameter size d[90] ([5]; nonmicronized compound): 228.474 μm
